Among the data in patent US10428080B2, “TBK/IKK inhibitor compounds and uses thereof” (Merck Patent GmbH, priority 2015, dated 2019) are IC50 values, retold here.

SMILES strings stand for the structures. Where a name gives a salt, the structure may show the parent alone.

In assay [1] the target is T1, TBK1 (Homo sapiens, UniProt Q9UHD2).
T1 sequence (Q9UHD2 1-729): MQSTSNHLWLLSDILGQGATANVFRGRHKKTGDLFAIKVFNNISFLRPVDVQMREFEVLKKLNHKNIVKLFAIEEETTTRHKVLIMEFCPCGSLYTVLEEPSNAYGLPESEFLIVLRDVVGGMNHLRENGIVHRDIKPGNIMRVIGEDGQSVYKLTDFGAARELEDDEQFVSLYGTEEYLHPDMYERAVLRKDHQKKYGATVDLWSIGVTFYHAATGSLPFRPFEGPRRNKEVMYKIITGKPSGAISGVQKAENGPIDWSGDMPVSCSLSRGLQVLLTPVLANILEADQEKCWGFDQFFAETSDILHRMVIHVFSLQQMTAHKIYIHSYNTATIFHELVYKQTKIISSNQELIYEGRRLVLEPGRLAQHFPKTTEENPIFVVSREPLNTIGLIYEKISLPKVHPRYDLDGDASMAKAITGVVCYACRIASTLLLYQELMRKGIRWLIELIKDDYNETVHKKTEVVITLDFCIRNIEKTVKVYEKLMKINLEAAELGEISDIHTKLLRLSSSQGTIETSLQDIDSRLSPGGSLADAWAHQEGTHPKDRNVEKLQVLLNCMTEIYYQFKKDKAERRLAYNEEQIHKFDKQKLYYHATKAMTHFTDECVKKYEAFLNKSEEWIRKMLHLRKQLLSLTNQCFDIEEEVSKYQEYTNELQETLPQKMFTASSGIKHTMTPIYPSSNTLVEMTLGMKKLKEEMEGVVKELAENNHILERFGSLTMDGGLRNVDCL
In words: TBK Biochemical Assay. Particulars: read-out: TBK1 IC50. An outline of the steps:
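TBK1 enzyme and substrate incubated with compounds (10-point 1:4 dilution, top 30 uM final, 1% DMSO) for 90 min at 25° C, then stopped. Substrate/product peaks read by microfluidic mobility-shift (Caliper LabChip); 10 uM staurosporine as full-inhibition control.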

For assay [2], the target named is T2, IKKε (Homo sapiens, UniProt Q14164).
T2 sequence (Q14164 1-716): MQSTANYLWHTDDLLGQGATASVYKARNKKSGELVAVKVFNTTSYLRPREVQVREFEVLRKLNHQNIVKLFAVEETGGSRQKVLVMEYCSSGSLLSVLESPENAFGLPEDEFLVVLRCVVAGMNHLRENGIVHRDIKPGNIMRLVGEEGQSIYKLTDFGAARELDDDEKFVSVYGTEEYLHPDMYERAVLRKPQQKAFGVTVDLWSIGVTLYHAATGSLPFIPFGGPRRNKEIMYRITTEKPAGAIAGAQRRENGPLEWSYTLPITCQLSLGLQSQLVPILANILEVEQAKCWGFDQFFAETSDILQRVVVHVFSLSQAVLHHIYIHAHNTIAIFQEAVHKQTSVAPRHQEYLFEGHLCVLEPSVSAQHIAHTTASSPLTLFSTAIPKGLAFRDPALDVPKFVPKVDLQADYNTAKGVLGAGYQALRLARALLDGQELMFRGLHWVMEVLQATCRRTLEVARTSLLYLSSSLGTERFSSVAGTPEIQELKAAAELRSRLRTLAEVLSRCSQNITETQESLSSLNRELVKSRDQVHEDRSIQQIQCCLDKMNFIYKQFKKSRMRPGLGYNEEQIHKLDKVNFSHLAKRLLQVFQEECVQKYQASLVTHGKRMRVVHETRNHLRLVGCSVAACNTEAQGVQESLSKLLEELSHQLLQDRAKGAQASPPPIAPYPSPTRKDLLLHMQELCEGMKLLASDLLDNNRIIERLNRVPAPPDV
In words: IKKe Biochemical Assay. Particulars: read-out: IKKε IC50. An outline of the steps:
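Recombinant IKKε and substrate were incubated with compound (10-point 1:4 series, top 30 uM final, 1% DMSO) for 90 min at 25° C, then stopped. Substrate-to-product conversion was read by LabChip microfluidic mobility shift; 10 uM staurosporine served as full-inhibition wells.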

Assay [3] concerns phosphorylation of the IRF-3 protein in MDA-MB-468 cells. Put plainly: pIRF3 immunocytochemistry cell based assay. The note with it: Homo sapiens; MDA-MB-468 cells, Poly(I:C) stimulation; read-out: pIRF3 IC50. Put shortly: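 MDA-MB-468 cells got compounds (10-point, 3-fold from 10 uM) for 1 h at 37 °C, then 10 ug/ml Poly(I:C) for 2 h. Fixed, permeabilized cells were immunostained for pIRF3 with AlexaFluor488 and counterstained with PI. % phosphorylation was read by laser scanning cytometry, and IC50 curves were fitted.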

As for `COc1cc(C(=O)NC2C3COCC32)ccc1-c1cc2nccc(-c3ccc(OC4CCOCC4)c(C#N)c3)c2o1` (stereo not drawn) [Compound 65, 4-{7-[3-Cyano-4-(tetrahydro-pyran-4-yloxy)-phenyl]-furo[3,2-b]pyridin-2-yl}-3-methoxy-N-(3-oxa-bicyclo[3.1.0]hex-6-yl)-benzamide], the IC50 was under 100 nM in assay [1], under 100 nM in assay [2] and 100 to 1000 nM in assay [3].

Regarding `COc1cc(C(=O)NNC(=O)OC(C)(C)C)ccc1-c1cc2nccc(-c3ccc(OC4CCOCC4)c(C#N)c3)c2o1` [Compound 67, N′-(4-{7-[3-Cyano-4-(tetrahydro-pyran-4-yloxy)-phenyl]-furo[3,2-b]pyridin-2-yl}-3-methoxy-benzoyl)-hydrazinecarboxylic acid tert-butyl ester], the IC50 in assay [1] was under 100 nM; in assay [2], under 100 nM; in assay [3], 100 to 1000 nM.

On to `COc1cc(C(=O)NC2CCC(O)C2)ccc1-c1cc2nccc(-c3ccc(OC4CCOCC4)c(C#N)c3)c2o1` (stereo not drawn) [Compound 68, 4-{7-[3-Cyano-4-(tetrahydro-pyran-4-yloxy)-phenyl]-furo[3,2-b]pyridin-2-yl}-N-(3-hydroxy-cyclopentyl)-3-methoxy-benzamide], for which the IC50 is under 100 nM in assay [1], under 100 nM in assay [2] and 100 to 1000 nM in assay [3].

As for `COc1cc(C(=O)NCC2(F)COC2)ccc1-c1cc2nccc(-c3ccc(OC4CCOCC4)c(C#N)c3)c2o1` [Compound 69, 4-{7-[3-Cyano-4-(tetrahydro-pyran-4-yloxy)-phenyl]-furo[3,2-b]pyridin-2-yl}-N-(3-fluoro-oxetan-3-ylmethyl)-3-methoxy-benzamide], the half-inhibitory concentration (IC50) in assay [1] was under 100 nM; in assay [2], under 100 nM; in assay [3] it was 100 to 1000 nM.

For `COc1cc(C(=O)N2CCC(CO)CC2)ccc1-c1cc2nccc(-c3ccc(N4CC[C@H](F)C4)c(C#N)c3)c2o1` [Compound 70, 2-((S)-3-Fluoro-pyrrolidin-1-yl)-5-{2-[4-(4-hydroxymethyl-piperidine-1-carbonyl)-2-methoxy-phenyl]-furo[3,2-b]pyridin-7-yl}-benzonitrile], the IC50 is under 100 nM in assay [1], under 100 nM in assay [2] and 100 to 1000 nM in assay [3].

For `COc1cc(C(=O)N(C)C)ccc1-c1cc2nccc(-c3ccc(OC4CCNCC4(F)F)c(C#N)c3)c2o1` (stereo not drawn) [Compound 71, 4-{7-[3-Cyano-4-(3,3-difluoro-piperidin-4-yloxy)-phenyl]-furo[3,2-b]pyridin-2-yl}-3-methoxy-N,N-dimethyl-benzamide hydrochloride], the IC50 in assay [1], in assay [2] and in assay [3] was under 100 nM each time.

In the case of `COc1cc(C(=O)NC2CN3CCC2CC3)ccc1-c1cc2nccc(-c3ccc(N4CC[C@H](F)C4)c(C#N)c3)c2o1` (stereo partly drawn) [Compound 72, N-(1-Aza-bicyclo[2.2.2]oct-3-yl)-4-{7-[3-cyano-4-((S)-3-fluoro-pyrrolidin-1-yl)-phenyl]-furo[3,2-b]pyridin-2-yl}-3-methoxy-benzamide], the IC50 was under 100 nM in assay [1], under 100 nM in assay [2] and 100 to 1000 nM in assay [3].

Regarding `COc1cc(C(=O)N2CC3CN(C)CC3C2)ccc1-c1cc2nccc(-c3ccc(NC4CCOCC4)c(C#N)c3)c2o1` (stereo not drawn) [Compound 73, 5-{2-[2-Methoxy-4-(5-methyl-hexahydro-pyrrolo[3,4-c]pyrrole-2-carbonyl)-phenyl]-furo[3,2-b]pyridin-7-yl}-2-(tetrahydro-pyran-4-ylamino)-benzonitrile], the IC50 in assay [1], in assay [2] and in assay [3] was under 100 nM each time.

Consider `COc1cc(C(=O)NC2CC(O)C2)ccc1-c1cc2nccc(-c3ccc(OC4CCOCC4)c(C#N)c3)c2o1` (stereo not drawn) [Compound 75, 4-{7-[3-Cyano-4-(tetrahydro-pyran-4-yloxy)-phenyl]-furo[3,2-b]pyridin-2-yl}-N-(3-hydroxy-cyclobutyl)-3-methoxy-benzamide], for which the IC50 in assay [1] is under 100 nM; in assay [2] it was under 100 nM; in assay [3] it was 100 to 1000 nM.

`COc1cc(C(=O)N2CCC(CO)C2)ccc1-c1cc2nccc(-c3ccc(N4CC[C@H](F)C4)c(C#N)c3)c2o1` (stereo partly drawn) [Compound 76, 2-((S)-3-Fluoro-pyrrolidin-1-yl)-5-{2-[4-(3-hydroxymethyl-pyrrolidine-1-carbonyl)-2-methoxy-phenyl]-furo[3,2-b]pyridin-7-yl}-benzonitrile]: the IC50 in assay [1] was under 100 nM; in assay [2], under 100 nM; in assay [3], 100 to 1000 nM.

As for `COc1cc(C(=O)N2CC(F)(F)C2)ccc1-c1cc2nccc(-c3ccc(OC4CCOCC4)c(C#N)c3)c2o1` [Compound 77, 5-{2-[4-(3,3-Difluoro-azetidine-1-carbonyl)-2-methoxy-phenyl]-furo[3,2-b]pyridin-7-yl}-2-(tetrahydro-pyran-4-yloxy)-benzonitrile], the values for the IC50 in assay [1], in assay [2] and in assay [3] were under 100 nM, under 100 nM and 100 to 1000 nM, respectively.

On to `COc1cc(C(=O)N(C)C)ccc1-c1cc2nccc(-c3ccc(NC4CCOCC4F)c(C#N)c3)c2o1` (stereo not drawn) [Compound 78], for which the IC50 in assay [1] is under 100 nM; in assay [2] it was under 100 nM; in assay [3], 100 to 1000 nM.

With `COc1cc(C(=O)NC2CN3CCC2CC3)ccc1-c1cc2nccc(-c3ccc(OC4CCOCC4)c(C#N)c3)c2o1` (stereo not drawn) [Compound 79, N-(1-Aza-bicyclo[2.2.2]oct-3-yl)-4-{7-[3-cyano-4-(tetrahydro-pyran-4-yloxy)-phenyl]-furo[3,2-b]pyridin-2-yl}-3-methoxy-benzamide], the IC50 in assay [1] is under 100 nM; in assay [2], under 100 nM; in assay [3] it was 100 to 1000 nM.

As for `COc1cc(C(=O)NOC2COC2)ccc1-c1cc2nccc(-c3ccc(OC4CCOCC4)c(C#N)c3)c2o1` [Compound 80, 4-{7-[3-Cyano-4-(tetrahydro-pyran-4-yloxy)-phenyl]-furo[3,2-b]pyridin-2-yl}-3-methoxy-N-(oxetan-3-yloxy)-benzamide], the results for the IC50 in assay [1], in assay [2] and in assay [3] were under 100 nM, under 100 nM and 100 to 1000 nM, respectively.

Turning to `COc1cc(C(=O)N(C)C)ccc1-c1cc2nccc(-c3ccc(NC4CCOCC4O)c(C#N)c3)c2o1` (stereo not drawn) [Compound 82], the IC50 was under 100 nM in assay [1], under 100 nM in assay [2] and 100 to 1000 nM in assay [3].

For the compound `COc1cc(C(=O)NC2C3CNCC32)ccc1-c1cc2nccc(-c3ccc(OC4CCOCC4)c(C#N)c3)c2o1` (stereo not drawn) [Compound 84, N-(3-Aza-bicyclo[3.1.0]hex-6-yl)-4-{7-[3-cyano-4-(tetrahydro-pyran-4-yloxy)-phenyl]-furo[3,2-b]pyridin-2-yl}-3-methoxy-benzamide hydrochloride], the figures for the IC50 in assay [1], in assay [2] and in assay [3] were under 100 nM, under 100 nM and 100 to 1000 nM, respectively.

Take `COc1cc(C(=O)NC2CN3CCC2CC3)ccc1-c1cc2nccc(-c3ccc(N4CCC(F)C4)c(C#N)c3)c2o1` (stereo not drawn) [Compound 87, N-(1-Aza-bicyclo[2.2.2]oct-3-yl)-4-{7-[3-cyano-4-(3-fluoro-pyrrolidin-1-yl)-phenyl]-furo[3,2-b]pyridin-2-yl}-3-methoxy-benzamide]: the IC50 was under 100 nM in assay [1], under 100 nM in assay [2] and 100 to 1000 nM in assay [3].
